Patent publication US20230390291A1, “TREATMENT OF SKIN DISORDERS WITH COMPOSITIONS COMPRISING AN EGFR INHIBITOR” (Sol-Gel Technologies Ltd., priority 2018, published 2023)
Where a name gives a salt, the structure may show the parent alone. Read-outs that look alike come from different tables or passages of the source.

How the values were obtained:
[1] = cited from earlier work
[2] = system: psoriasis-induced human skin xenotransplants; assay: Histological evaluation of psoriasis-induced xenotransplants; format: in vivo, beige-SCID mice; details: topical for 14 days, histology on Day 56
Source text: The objective of this study was to determine the efficacy of Erlotinib 5% as provided herein compared to the vehicle and Dexamethasone as shown at the Table below. The evaluation was based on histology analysis following application of the respective test formulations.
The efficacy study has been conducted on female mice. The total duration of the experiment was 8 weeks, upon receiving of the human skin. Normal skin from healthy volunteers were obtained for grafting. Healthy human abdominal skin pieces with a width of 0.4 mm and surface area of 1.5×1.5 cm were provided. The skin sample was preserved in isotonic saline solution and transplanted within 6-12 hours after skin donation. In addition, blood samples were collected from psoriatic patients having classic plaque psoriasis and not undergoing any treatment. 20 mL blood samples were taken from both males and females psoriatic patients (from psoriatic patients having classic plaque psoriasis and not undergoing any treatment), and peripheral blood mononuclear cells (PBMC) were separated immediately after blood withdrawal.
Mice: Beige-severe combined immunodeficient mice C.B-17/IcrHsdscid-bg (beige-SCID) mice (weight ˜25 g) were included in this study. Mice were monitored twice a week for vital signs such as weight, food intake, coat, eyes, anal genital areas, discharge/soiling, behavior and criteria related to skin transplantation. Normal healthy human donor skin were transplanted onto the beige-SCID mice as previously described (See Keren A. et al., Novel nanosome delivery system combined with siRNA targeting the antimicrobial gene DFB4: a new approach for psoriasis management?ExpDermatol. 2014; 23:464-465; Bracke S. et al.,Targeted silencing of DEFB4 in a bioengineered skin-humanized mouse model for psoriasis: development of siRNA SECosome-based novel therapies. ExpDermatol. 2014 ;23:199-201; Zaretsky M. et al., Directed evolution of a soluble human IL-17A receptor for the inhibition of psoriasis plaque formation in a mouse model. Chem Biol. 2013 21; 20:202-2; Gilhar A. et al., The beneficial effect of blocking Kv1.3 in the psoriasiform SCID mouse model. J Invest Dermatol. 2011;131:118 124; Keren A. et al., Innate lymphoid cells 3 induce psoriasis in xenotransplanted healthy human skin. J Allergy Clin Immunol. 2018;142:305-308.e6.).
British Journal of Pharmacology 2010; 159:842-855).
Four weeks following the engraftment, each mouse was injected (intradermally) with 1×10^7 IL-2 enriched allogeneic PBMC's from psoriatic patients (1×10^7 cells injected/mouse). Cells from different psoriasis patients were equally distributed between treatment groups. Each patient was represented in each treatment group.
Fourteen days following cells injections, the mice were divided into treatment groups (Table, see below) and treated according to the timeline indicated below (see Scheme 1). Each transplant was equally topically treated (50 μg) by using a sterile spatula.
Dexamethasone (D2915, Sigma): was freshly prepared for each administration by dilution in saline to final concentration (50 mg/ml). Dexamethasone serves as a positive control and was administered topically twice daily for 14 days following cells injections (at Day 42 following human skin transplantation) until the end of the study (Day 56).
The vehicle was administered topically (50 μg) once daily for 14 days as well.
On Day 56, the entire skin graft was excised and placed in 10% formaldehyde in saline overnight. Then, the specimens were placed in 70% ethanol and embedded and stained according to the standard Hematoxylin/Eosin protocol.
Skin graft histological assessment was performed (according to the psoriatic criteria including epidermal thickness) using light microscopy, and two observers blindly performed the evaluations. Epidermal thickness was determined using an ocular micrometer at a minimum of 50 points along the epidermis selected to represent points of maximal and minimal thickness. […]

Ki67 = assay: Epidermal proliferation of transplants, Ki67 immunohistochemical staining; format: in vivo, beige-SCID mice; details: xenotransplants after 14 days of treatment
Protocol: From the study of Example 11, the human skin xenotransplants were harvested and fixed in 10% saline-buffered formalin overnight followed by 70% ethanol. Sections were stained and visualized with immunohistochemistry.
Antigen retrieval was performed on the slides for 20 minutes in a microwave followed by cooling at room temperature for 25 minutes. Specimens were blocked for 30 minutes to prevent nonspecific binding and incubated with the primary antibody (Ab) overnight. The following primary antibodies were used: mouse anti human Ki67. Samples were then washed and incubated for 30 minutes with a biotinylated secondary antibody (Jackson ImmunoResearch, West Grove, Pa.). Finally, samples were washed and incubated with streptavidin-horseradish peroxidase (Jackson ImmunoResearch, West Grove, Pa.). […] Samples were examined using light microscopy.
Slides were evaluated by experienced blinded observers. The fields of immunostained sections were counted in three areas and presented randomly to the observer(s).

[3] = number of transplants out of 10

SMILES: C#Cc1cccc(Nc2ncnc3cc(OCCOC)c(OCCOC)cc23)c1 [Erlotinib hydrochloride]
- Solubility ([1]; in acetone): practically insoluble
- Solubility ([1]; in acetonitrile): practically insoluble
- Solubility ([1]; in ethyl acetate): practically insoluble
- Solubility ([1]; in hexane): practically insoluble
- Solubility ([1]; in methanol): slightly soluble
- Solubility ([1]; in water): very slightly soluble

SMILES: C[C@@H]1C[C@H]2[C@@H]3CCC4=CC(=O)C=C[C@]4(C)[C@@]3(F)[C@@H](O)C[C@]2(C)[C@@]1(O)C(=O)CO [Dexamethasone]
- Complete Recovery [2, 3]: 9/10
- Partial Recovery [2, 3]: 1/10
- Psoriatic Features [2, 3]: 0/10
- Complete Recovery ([2]; percent of transplants): (90%)
- Partial Recovery ([2]; percent of transplants): (10%)
- Psoriatic Features ([2]; percent of transplants): (0%)

SMILES: C#Cc1cccc(Nc2ncnc3cc(OCCOC)c(OCCOC)cc23)c1 [Erlotinib, N-(3-ethynylphenyl)-6,7-bis(2-methoxyethoxy)-4-quinazolinamine]
- proliferation index (Ki-67) compared to vehicle-treated xenotransplants (Ki67): significant decrease
